# Measurements: patent publication US20040006070A1, “Intraspinal continuous infusion of midazolam hydrochloride for the treatment of pain” (priority 2002, published 2004)
# Counter-ions that a name gives are not always drawn.
# Test: Bloodwork: complete blood count, electrolytes, extended blood chemistry
# Format: in vivo, sheep
# Description: Indirect blood pressure, pulse recording, pain testing (mechanical stimulus device, cold and warm water baths see description in procedure) and weight were taken on days 1, 3, 7, 15, 22, 29, 36, and 43. Venous blood samples (15 ml drawn from the jugular vein with Vacutainer brand blood collection tubes) for complete blood count, electrolytes, and extended blood chemistry were drawn on days 1, 15, and 43 (mild procedure only light hand restraint necessary).
# [1] = Double Blinded Sheep, Chemistries, Day 15
# [2] = Double Blinded Sheep, Chemistries, Day 43
# [3] = sheep #84 Roadrunner, 15 mg/day, Baseline
# [4] = sheep #84 Roadrunner, 15 mg/day, Day 1
compound,measurement,setting,value
"Cc1ncc2n1-c1ccc(Cl)cc1C(c1ccccc1F)=NC2 [Midazolam, midazolam hydrochloride]",ALT,[1],10 U/L
same,AST,[1],72 U/L
same,CPK,[1],100 U/L
same,Cholesterol,[1],74 mg/dL
same,Total Bili,"Double Blinded Sheep, Chemistries, Day 15, reference range 0.14-0.32",0.1 mg/dL
same,Creatinine,"Double Blinded Sheep, Chemistries, Day 15, reference range 1-2.7",1.1 mg/dL
same,Albumin,"Double Blinded Sheep, Chemistries, Day 15, reference range 2.4-3",3.6 g/dL
same,K+,"Double Blinded Sheep, Chemistries, Day 15, reference range 3.9-5.4",4.8 mEq/l
same,Phos,"Double Blinded Sheep, Chemistries, Day 15, reference range 5-7.3",6.4 mg/dL
same,Total Prot,"Double Blinded Sheep, Chemistries, Day 15, reference range 6-7.9",7.1 g/dL
same,BUN,"Double Blinded Sheep, Chemistries, Day 15, reference range 8-20",25 mg/dL
same,Gamma GT,"Double Blinded Sheep, Chemistries, Day 15, reference range 25-59",87 U/L
same,Glucose,"Double Blinded Sheep, Chemistries, Day 15, reference range 42-76",82 mg/dL
same,Alk Phos,"Double Blinded Sheep, Chemistries, Day 15, reference range 68-387",154 U/L
same,Na+,"Double Blinded Sheep, Chemistries, Day 15, reference range 139-152",146 mEq/l
same,ALT,[2],15 U/L
same,AST,[2],78 U/L
same,CPK,[2],96 U/L
same,Cholesterol,[2],80 mg/dL
same,Total Bili,"Double Blinded Sheep, Chemistries, Day 43, reference range 0.14-0.32",0.1 mg/dL
same,Creatinine,"Double Blinded Sheep, Chemistries, Day 43, reference range 1-2.7",1.0 mg/dL
same,Albumin,"Double Blinded Sheep, Chemistries, Day 43, reference range 2.4-3",3.6 g/dL
same,K+,"Double Blinded Sheep, Chemistries, Day 43, reference range 3.9-5.4",5.7 mEq/l
same,Phos,"Double Blinded Sheep, Chemistries, Day 43, reference range 5-7.3",6.9 mg/dL
same,Total Prot,"Double Blinded Sheep, Chemistries, Day 43, reference range 6-7.9",6.9 g/dL
same,BUN,"Double Blinded Sheep, Chemistries, Day 43, reference range 8-20",26 mg/dL
same,Gamma GT,"Double Blinded Sheep, Chemistries, Day 43, reference range 25-59",73 U/L
same,Glucose,"Double Blinded Sheep, Chemistries, Day 43, reference range 42-76",70 mg/dL
same,Alk Phos,"Double Blinded Sheep, Chemistries, Day 43, reference range 68-387",179 U/L
same,Na+,"Double Blinded Sheep, Chemistries, Day 43, reference range 139-152",146 mEq/l
same,ALT,"sheep #83, 15 mg/day, Day 1",0 U/L
same,AST,"sheep #83, 15 mg/day, Day 1",102 U/L
same,Alk Phos,"sheep #83, 15 mg/day, Day 1",48 U/L
same,BUN,"sheep #83, 15 mg/day, Day 1",8 mg/dL
same,CPK,"sheep #83, 15 mg/day, Day 1",65 U/L
same,Cholesterol,"sheep #83, 15 mg/day, Day 1",47 mg/dL
same,Differential Count: Eosin,"sheep #83, 15 mg/day, Day 1",1%
same,Differential Count: Lymph,"sheep #83, 15 mg/day, Day 1",55%
same,Differential Count: Mono,"sheep #83, 15 mg/day, Day 1",5%
same,Differential Count: Seg,"sheep #83, 15 mg/day, Day 1",39%
same,Gamma GT,"sheep #83, 15 mg/day, Day 1",62 U/L
same,Glucose,"sheep #83, 15 mg/day, Day 1",78 mg/dL
same,Hct,"sheep #83, 15 mg/day, Day 1",37.2%
same,Hgb,"sheep #83, 15 mg/day, Day 1",12.7 g/dL
same,MCH,"sheep #83, 15 mg/day, Day 1",11.3 pg
same,MCHC,"sheep #83, 15 mg/day, Day 1",34.0 g/dL
same,MCV,"sheep #83, 15 mg/day, Day 1",33.2 fL
same,Na+,"sheep #83, 15 mg/day, Day 1",148 mEq/l
same,Platlet Count,"sheep #83, 15 mg/day, Day 1",879000 µL⁻¹
same,RBC,"sheep #83, 15 mg/day, Day 1",1.12e+07 µL⁻¹
same,WBC,"sheep #83, 15 mg/day, Day 1",5320 µL⁻¹
same,Total Bili,"sheep #83, 15 mg/day, Day 1, ref 0.14-0.32",0.1 mg/dL
same,Creatinine,"sheep #83, 15 mg/day, Day 1, ref 1-2.7",1.4 mg/dL
same,Albumin,"sheep #83, 15 mg/day, Day 1, ref 2.4-3",3.3 g/dL
same,K+,"sheep #83, 15 mg/day, Day 1, ref 3.9-5.4",4.2 mEq/l
same,Phos,"sheep #83, 15 mg/day, Day 1, ref 5-7.3",7.1 mg/dL
same,Total Prot,"sheep #83, 15 mg/day, Day 1, ref 6-7.9",6.1 g/dL
same,ALT,"sheep #83, 15 mg/day, Day 15",8 U/L
same,AST,"sheep #83, 15 mg/day, Day 15",52 U/L
same,Alk Phos,"sheep #83, 15 mg/day, Day 15",90 U/L
same,BUN,"sheep #83, 15 mg/day, Day 15",90 mg/dL
same,CPK,"sheep #83, 15 mg/day, Day 15",107 U/L
same,Cholesterol,"sheep #83, 15 mg/day, Day 15",65 mg/dL
same,Differential Count: Eosin,"sheep #83, 15 mg/day, Day 15",1%
same,Differential Count: Lymph,"sheep #83, 15 mg/day, Day 15",68%
same,Differential Count: Mono,"sheep #83, 15 mg/day, Day 15",2%
same,Differential Count: Seg,"sheep #83, 15 mg/day, Day 15",29%
same,Gamma GT,"sheep #83, 15 mg/day, Day 15",72 U/L
same,Glucose,"sheep #83, 15 mg/day, Day 15",66 mg/dL
same,Hct,"sheep #83, 15 mg/day, Day 15",33.2%
same,Hgb,"sheep #83, 15 mg/day, Day 15",11.5 g/dL
same,MCH,"sheep #83, 15 mg/day, Day 15",11.4 pg
same,MCHC,"sheep #83, 15 mg/day, Day 15",34.7 g/dL
same,MCV,"sheep #83, 15 mg/day, Day 15",33.0 fL
same,Na+,"sheep #83, 15 mg/day, Day 15",147 mEq/l
same,Platlet Count,"sheep #83, 15 mg/day, Day 15",296000 µL⁻¹
same,RBC,"sheep #83, 15 mg/day, Day 15",1e+07 µL⁻¹
same,WBC,"sheep #83, 15 mg/day, Day 15",4390 µL⁻¹
same,Total Bili,"sheep #83, 15 mg/day, Day 15, ref 0.14-0.32",0.1 mg/dL
same,Creatinine,"sheep #83, 15 mg/day, Day 15, ref 1-2.7",1.2 mg/dL
same,Albumin,"sheep #83, 15 mg/day, Day 15, ref 2.4-3",3.3 g/dL
same,K+,"sheep #83, 15 mg/day, Day 15, ref 3.9-5.4",4.5 mEq/l
same,Phos,"sheep #83, 15 mg/day, Day 15, ref 5-7.3",5.1 mg/dL
same,Total Prot,"sheep #83, 15 mg/day, Day 15, ref 6-7.9",5.9 g/dL
same,ALT,"sheep #83, 15 mg/day, Day 43",6 U/L
same,AST,"sheep #83, 15 mg/day, Day 43",53 U/L
same,Alk Phos,"sheep #83, 15 mg/day, Day 43",96 U/L
same,BUN,"sheep #83, 15 mg/day, Day 43",14 mg/dL
same,CPK,"sheep #83, 15 mg/day, Day 43",49 U/L
same,Cholesterol,"sheep #83, 15 mg/day, Day 43",52 mg/dL
same,Differential Count: Atyp lym,"sheep #83, 15 mg/day, Day 43",2%
same,Differential Count: Eosin,"sheep #83, 15 mg/day, Day 43",3%
same,Differential Count: Lymph,"sheep #83, 15 mg/day, Day 43",70%
same,Differential Count: Mono,"sheep #83, 15 mg/day, Day 43",3%
same,Differential Count: Seg,"sheep #83, 15 mg/day, Day 43",22%
same,Gamma GT,"sheep #83, 15 mg/day, Day 43",54 U/L
same,Glucose,"sheep #83, 15 mg/day, Day 43",83 mg/dL
same,Hct,"sheep #83, 15 mg/day, Day 43",34.9%
same,Hgb,"sheep #83, 15 mg/day, Day 43",11.9 g/dL
same,MCH,"sheep #83, 15 mg/day, Day 43",11.1 pg
same,MCHC,"sheep #83, 15 mg/day, Day 43",31.1 g/dL
same,MCV,"sheep #83, 15 mg/day, Day 43",32.5 fL
same,Na+,"sheep #83, 15 mg/day, Day 43",149 mEq/l
same,Platlet Count,"sheep #83, 15 mg/day, Day 43",576000 µL⁻¹
same,RBC,"sheep #83, 15 mg/day, Day 43",1.07e+07 µL⁻¹
same,WBC,"sheep #83, 15 mg/day, Day 43",4770 µL⁻¹
same,Total Bili,"sheep #83, 15 mg/day, Day 43, ref 0.14-0.32",0.1 mg/dL
same,Creatinine,"sheep #83, 15 mg/day, Day 43, ref 1-2.7",1.3 mg/dL
same,Albumin,"sheep #83, 15 mg/day, Day 43, ref 2.4-3",3.6 g/dL
same,K+,"sheep #83, 15 mg/day, Day 43, ref 3.9-5.4",4.9 mEq/l
same,Phos,"sheep #83, 15 mg/day, Day 43, ref 5-7.3",6.2 mg/dL
same,Total Prot,"sheep #83, 15 mg/day, Day 43, ref 6-7.9",6.6 g/dL
same,Differential Count: Eosin,[3],5%
same,Differential Count: Lymph,[3],62%
same,Differential Count: Mono,[3],1%
same,Differential Count: Seg,[3],32%
same,Hct,[3],41.9%
same,Hgb,[3],15.0 g/dL
same,MCH,[3],10.7 pg
same,MCHC,[3],35.7 g/dL
same,MCV,[3],30.0 fL
same,Platlet Count,[3],721000 µL⁻¹
same,RBC,[3],1.4e+07 µL⁻¹
same,WBC,[3],5790 µL⁻¹
same,ALT,[4],9 U/L
same,AST,[4],100 U/L
same,Albumin,[4],3.3 g/dL
same,Alk Phos,[4],93 U/L
same,BUN,[4],7 mg/dL
same,CPK,[4],90 U/L
same,Cholesterol,[4],45 mg/dL
same,Creatinine,[4],1.2 mg/dL
same,Differential Count: Eosin,[4],8%
same,Differential Count: Lymph,[4],43%
same,Differential Count: Mono,[4],3%
same,Differential Count: Seg,[4],46%
same,Gamma GT,[4],51 U/L
same,Glucose,[4],69 mg/dL
same,Hct,[4],35.7%
same,Hgb,[4],12.9 g/dL
same,K+,[4],4.8 mEq/l
same,MCH,[4],11.0 pg
same,MCHC,[4],36.1 g/dL
same,MCV,[4],30.4 fL
same,Na+,[4],148 mEq/l
same,Phos,[4],6.2 mg/dL
same,Platlet Count,[4],962000 µL⁻¹
same,RBC,[4],1.17e+07 µL⁻¹
